The source made the active and inactive calls. The calls are words filed in the database; no cut-off is given here.
Tests used:
MDA-MB-231 = assay type: functional, Homo sapiens
Description: Growth inhibition of Homo sapiens (human) MDA-MB-231 cells at 10^-12 to 10^-6 M after 48 hr by MTT assay

Aromatase [1] = biological target: T1, Aromatase (Rattus norvegicus, UniProt P22443); test: Inhibition of aromatase in Rattus norvegicus (rat) PMSG-treated denucleated ovarian fraction using testosterone as substrate at 50 uM after 15 min by radioimmuno assay; settings: 0.25 h
T1 sequence (P22443 whole entry): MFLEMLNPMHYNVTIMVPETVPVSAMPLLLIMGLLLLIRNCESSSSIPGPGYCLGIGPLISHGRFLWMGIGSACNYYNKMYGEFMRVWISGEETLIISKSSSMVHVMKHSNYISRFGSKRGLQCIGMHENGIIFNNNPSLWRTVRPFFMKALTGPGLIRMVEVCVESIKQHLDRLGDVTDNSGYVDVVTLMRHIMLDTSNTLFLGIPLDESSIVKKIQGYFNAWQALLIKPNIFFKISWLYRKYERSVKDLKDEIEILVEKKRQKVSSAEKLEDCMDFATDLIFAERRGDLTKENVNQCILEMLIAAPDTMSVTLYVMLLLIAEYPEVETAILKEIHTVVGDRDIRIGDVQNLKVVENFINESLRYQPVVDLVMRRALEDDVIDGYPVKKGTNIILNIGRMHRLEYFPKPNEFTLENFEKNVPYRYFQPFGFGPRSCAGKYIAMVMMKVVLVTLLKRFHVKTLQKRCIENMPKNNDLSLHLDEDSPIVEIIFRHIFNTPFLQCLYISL

Rattus norvegicus [2] = test: Antiestrogenic activity in female Rattus norvegicus Wistar (rat) assessed as decrease in estradiol benzoate-induced uterine weight at 5 mg/kg, sc QD for 3 days relative to control; assay type: functional; settings: 72 h, route subcutaneous
Rattus norvegicus [3] = test: Estrogenic activity in female Rattus norvegicus Wistar (rat)assessed as change in uterine weight at 5 mg/kg, sc QD for 3 days relative to control; settings: in vivo, 72 h
Aromatase [4] = biological target: T1, Aromatase; test: Inhibition of aromatase in Rattus norvegicus (rat) PMSG-treated denucleated ovarian fraction using testosterone as substrate at 10 uM after 15 min by radioimmuno assay; settings: 0.25 h
HT-29 [5] = test: Growth inhibition of Homo sapiens (human) HT-29 cells at 10^-12 to 10^-6 M after 48 hr by MTT assay; assay type: functional; set-up: concentration or dose not given beside the values
Rattus norvegicus [6] = test: Estrogenic activity in female Rattus norvegicus Wistar (rat) assessed as change in uterine weight at 25 mg/kg, sc QD for 3 days relative to control; settings: in vivo, 72 h
MCF7 [7] = test: Growth inhibition of Homo sapiens (human) MCF-7 cells at 10^-12 to 10^-6 M after 48 hr by MTT assay; assay type: functional
Rattus norvegicus [8] = test: Antiestrogenic activity in female Rattus norvegicus Wistar (rat) assessed as decrease in estradiol benzoate-induced uterine weight at 25 mg/kg, sc QD for 3 days relative to control; assay type: functional; settings: 72 h, route subcutaneous
MCF7 [9] = test: Induction of Homo sapiens (human) MCF7 cell growth at 10^-6 M after 48 hr by MTT assay; settings: mcf7, 48 h, 1 µM
MCF7 [10] = test: Growth inhibition of Homo sapiens (human) MCF-7 cell growth at 10^-6 M after 48 hr by MTT assay; assay type: functional, cell-based
MCF7 [11] = test: Growth inhibition of Homo sapiens (human) MCF-7 cells at 10^-12 to 10^-7 M after 48 hr by MTT assay; assay type: functional
[12] = Growth inhibition of Homo sapiens (human) MRC5 cells at 10^-12 to 10^-6 M after 48 hr by MTT assay; assay type: cell-based; settings: read-out: GI
HT-29 [13] = test: Growth inhibition of Homo sapiens (human) HT-29 cells at 10^-12 to 10^-9 M after 48 hr by MTT assay; assay type: functional, cell-based
MRC5 = test: Cytotoxicity against Homo sapiens (human) MRC5 cells at 10^-12 to 10^-6 M after 48 hr by MTT assay; assay type: cell-based; settings: mrc5, 48 h
MCF7 [14] = test: Growth inhibition of Homo sapiens (human) MCF-7 cells at 10^-12 to 10^-9 M after 48 hr by MTT assay; assay type: functional

| Compound | inhibition at 50 µM (Aromatase [1]) | Activity (Rattus norvegicus [3]) | inhibition at 10 µM (Aromatase [4]) | growth inhibition (GI) (MDA-MB-231) | inhibition in vivo at 5 mg/kg (Rattus norvegicus [2]) | growth inhibition (GI) (HT-29 [5]) | Activity (Rattus norvegicus [6]) | growth inhibition (GI) (MCF7 [7]) | inhibition in vivo at 25 mg/kg (Rattus norvegicus [8]) | Activity (MCF7 [9]) | growth inhibition (GI) (MCF7 [10]) | growth inhibition (GI) (MCF7 [11]) | inhibition at 48 h [12] | growth inhibition (GI) (HT-29 [13]) | Activity (MRC5) | growth inhibition (GI) (MCF7 [14]) |
| --- | --- | --- | --- | --- | --- | --- | --- | --- | --- | --- | --- | --- | --- | --- | --- | --- |
| C[C@]12CC[C@@H]3c4ccc(O)cc4CC[C@H]3[C@@H]1CC[C@@H]2O [ESTRADIOL] | – | – | – | – | – | 20% | – | – | – | Non-toxic | inactive | 10% | – | – | – | – |
| C[C@]1(COC(=O)CCC(=O)O)CC[C@@H]2c3ccc(OCc4ccccc4)cc3CC[C@H]2[C@@H]1CC#N | 21.2% | -2.28% | 7.02% | 40% | 2.82% | 40% | – | 40% | – | – | – | – | 40% | – | – | – |
| CC/C(=C(\c1ccccc1)c1ccc(OCCN(C)C)cc1)c1ccccc1.O=C(O)CC(O)(CC(=O)O)C(=O)O [TAMOXIFEN CITRATE] | – | 39.78% | – | 30% | – | Active | 39.36% | – | 62.8% | Non-toxic | inactive | Active | – | – | – | – |
| C[C@]1(CO)CC[C@@H]2c3ccc(OCc4ccccc4)cc3CC[C@H]2[C@@H]1CC#N | – | 0.71% | – | – | 31.5% | – | – | – | – | – | – | – | – | – | – | – |

Further lines, with some results ahead:

| inhibition at 50 µM (Aromatase [1]) | Activity (Rattus norvegicus [3]) | inhibition at 10 µM (Aromatase [4]) | Compound | growth inhibition (GI) (MDA-MB-231) | inhibition in vivo at 5 mg/kg (Rattus norvegicus [2]) | growth inhibition (GI) (HT-29 [5]) | Activity (Rattus norvegicus [6]) | growth inhibition (GI) (MCF7 [7]) | inhibition in vivo at 25 mg/kg (Rattus norvegicus [8]) | Activity (MCF7 [9]) | growth inhibition (GI) (MCF7 [10]) | growth inhibition (GI) (MCF7 [11]) | inhibition at 48 h [12] | growth inhibition (GI) (HT-29 [13]) | Activity (MRC5) | growth inhibition (GI) (MCF7 [14]) |
| --- | --- | --- | --- | --- | --- | --- | --- | --- | --- | --- | --- | --- | --- | --- | --- | --- |
| 0.1% | -6.78% | -10.6% | C[C@]1(COC(=O)CCC(=O)O)CC[C@@H]2c3ccc(O)cc3CC[C@H]2[C@@H]1CC#N | 30% | 41.6% | 30% | 6.42% | 30% | 11.9% | – | – | – | – | – | – | – |
| – | -2.06% | – | C[C@]1(CO)CC[C@@H]2c3ccc(O)cc3CC[C@H]2[C@@H]1CC#N | – | 21.1% | – | – | – | – | – | – | – | – | – | – | – |
| 67.3% | -9.63% | 16.6% | C[C@]1(COC(=O)CCCC(=O)O)CC[C@@H]2c3ccc(O)cc3CC[C@H]2[C@@H]1CC#N | 10% | 13.8% | 10% | – | 10% | – | – | – | – | 10% | – | – | – |
| 88.2% | -3.92% | 17.9% | C[C@]1(COC(=O)CCCC(=O)O)CC[C@@H]2c3ccc(OCc4ccccc4)cc3CC[C@H]2[C@@H]1CC#N | – | 8.5% | – | – | – | – | – | – | – | – | Active | Non-toxic | 20% |

From ChEMBL document CHEMBL3044577, “Evaluation of biological activity of new hemiesters of 17-hydroxy-16,17-secoestra-1,3,5(10)-triene-16-nitrile” (Med Chem Res, 2011)
